From patent US12715915B2, “Gout flare prevention methods using IL-1β blockers” (priority 2022, dated 2026)
Entries after “also recorded” stand apart in the source; their conditions may differ. Read-outs that look alike come from different tables or passages of the source.

How the values were obtained:
human IL1β = human IL1β (Homo sapiens, UniProt P01584); settings: blocks interaction with IL-1 receptors; cited from earlier work
[1] = test system: adult uncontrolled gout patients; assay: MIRROR-C: open-label trial of canakinumab prophylaxis to prevent gout flares when initiating pegloticase+MTX; format: in vivo, human
Text: 86. Pegloticase plus methotrexate (approved by FDA in July 2022) is effective at reducing signs/symptoms of uncontrolled gout. In the pivotal trial (MIRROR RCT) the most common adverse event was gout flares which occurred in 54% of patients at month 1 on combination pegloticase and methotrexate. The purpose of this study is to determine if canakinumab is effective for the prevention of gout flares in subjects scheduled to begin KRYSTEXXA® (KRY) (pegloticase) infusions in combination with methotrexate. The most common adverse event that occurs in patients being treated with KRY and methotrexate are gout flares which occurred in 54% of patients at month 1 in the MIRROR RCT. Herein we use canakinumab pretreatment (without corticosteroids, NSAIDs, or colchicine) to reduce the number of gout flares.
87 Canakinumab is the drug that is tested herein. It is currently approved by the FDA for the treatment of periodic fever syndromes and active systemic juvenile idiopathic arthritis (SJIA). However, Canakinumab is considered to be experimental in this study. Subjects scheduled (by their treating provider) to receive pegloticase (with methotrexate) receive a single 150 mg injection of subcutaneous canakinumab one week prior to the first scheduled pegloticase infusion. The combination of the drugs is experimental. As shown herein,
88. Subjects scheduled (by their treating provider) to receive pegloticase (with methotrexate) receive a single 150 mg injection of subcutaneous canakinumab one week prior to the first scheduled pegloticase infusion. At each infusion, subjects are assessed for gout flares. Canakinumab are provided by the study to subjects without charge. Pegloticase, methotrexate, and other medications are obtained through standard means (patient insurance, patient assistance, etc.) as ordered by treating provider. […] It is assumed that mobilization of gout crystals at the initiation of therapy results in gout flares through the IL-1 inflammasome pathway. A goal of prophylaxis is to reduce the number of flares with initiation. […]
89. […] On the day of KRYSTEXXA® administration (i.e., Day 0), the blood pressure, respiratory rate, temperature, and heart rate of patients are measured and patients receive a first administration of KRYSTEXXA® delivered as an intravenous (i.v.) infusion. Every two weeks thereafter during the study (i.e., Day 14, Day 28, Day 42, Day […], Day 98, Day 112, Day 126, Day 140, Day 154, Day 168; also called Week 2, Week 4, Week 6, Week 8, Week 10, Week 12, Week 14, Week 16, Week 18, Week 20, Week 22, Week 24) the blood pressure, respiratory rate, temperature, and heart rate of patients are measured and patients report any gout flares. […]

[2] = target: IL-1 receptor antagonist (IL-1ra) (Homo sapiens, UniProt P18510); settings: cited from earlier work
Sequence of IL-1 receptor antagonist (IL-1ra) (P18510 26-177): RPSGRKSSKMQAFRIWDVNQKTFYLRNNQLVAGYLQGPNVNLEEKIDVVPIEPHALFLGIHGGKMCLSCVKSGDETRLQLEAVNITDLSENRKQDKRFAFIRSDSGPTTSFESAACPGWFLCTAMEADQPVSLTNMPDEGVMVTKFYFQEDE

IL-1α = target: T1, IL-1α (Homo sapiens, UniProt P01583); settings: cited from earlier work
T1 sequence (P01583 113-271): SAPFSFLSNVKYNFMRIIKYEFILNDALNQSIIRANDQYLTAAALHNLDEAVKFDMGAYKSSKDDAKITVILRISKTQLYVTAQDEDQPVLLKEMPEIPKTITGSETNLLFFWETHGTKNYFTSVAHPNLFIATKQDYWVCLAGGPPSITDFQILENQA

[3] = test system: gout patients initiating allopurinol; settings: cited from earlier work; for risk of gout flares during allopurinol initiation: in vivo

canakinumab
binding to human IL1β (human IL1β): binds to human IL1β and neutralizes its activity
time to resolution of active gout flares after administration ([1]; canakinumab 150 mg s.c.): ≤ 48 h
treated patients in whom gout flares were prevented ([1]; canakinumab prophylaxis without corticosteroids, initiation of pegloticase with methotrexate): 100%
safety of canakinumab prophylaxis with pegloticase+MTX ([1]; single 150 mg dose, without CS): no new safety signals; also recorded: did not compromise efficacy or safety
new gout flares after canakinumab prophylaxis ([1]; single 150 mg s.c. dose 7 days before first pegloticase infusion, no CS, NSAIDs or colchicine, assessed every 2 wks for 6 mos): No new gout flares; also recorded: prevented gout flares in all patients
binding to IL-1 receptor antagonist (IL-1ra) [2]: does not bind
binding to IL-1α (IL-1α): does not bind
risk of gout flares during allopurinol initiation [3]: reduces the risk of flares
risk of gout flares during allopurinol initiation ([3]; listed as Canakinumab): can reduce subsequent flares
prophylaxis against flares compared to colchicine ([3]; single dose ≥50 mg, initiating allopurinol): superior prophylaxis
